In the assay the test system is CD2F1 mice, L1210 leukemia sc, survival T/C. The experiment in a line: NCI In Vivo Anticancer Drug Screen. Data for tumor model L1210 Leukemia (subcutaneous) in CD2F1 (CDF1) mice. To be noted: endpoint: median survival time, higher = longer survival. In short, it runs like this:
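Read-out: survival or tumor size. Value = treated (T) / vehicle control (C). Transplantable tumor in mice.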

This passage reports T/C results from PubChem BioAssay AID258 (DTP/NCI, 2004).

The structures appear in SMILES notation. Several values for one entry are separate records, joined by “and”; a condition that tells them apart may be missing. Equal entries are not always repeated. Toxic doses and inconclusive results are not listed.

As for `CC(CN1CC(=O)NC(=O)C1)N1CC(=O)NC(=O)C1` (centres undefined), the T/C was 119 % of control (dose: 1.25 mg/kg/injection, schedule: Q01DX009 (ip), vehicle: saline with Tween-80); 113 % of control (dose: 1.88 mg/kg/injection, schedule: Q01DX009 (sc), vehicle: saline with Tween-80); 114 % of control (dose: 2.5 mg/kg/injection, schedule: Q01DX009 (ip), vehicle: saline with Tween-80); 159 % of control (dose: 15.0 mg/kg/injection, schedule: Q01DX009 (ip), vehicle: saline with Tween-80); 178 % of control (dose: 15.0 mg/kg/injection, schedule: Q01DX009 (sc), vehicle: saline with Tween-80); 124 % of control (dose: 15.0 mg/kg/injection, schedule: Q01DX009 (sc), vehicle: saline). The T/C was 156 % of control (dose: 20.0 mg/kg/injection, schedule: Q01DX009 (sc), vehicle: saline with Tween-80); 178 % of control (dose: 30.0 mg/kg/injection, schedule: Q01DX009 (ip), vehicle: saline with Tween-80); 191 % of control (dose: 35.0 mg/kg/injection, schedule: Q01DX009 (sc), vehicle: saline with Tween-80); 165 % of control (dose: 40.0 mg/kg/injection, schedule: Q01DX009 (ip), vehicle: saline with Tween-80); 186 % of control (dose: 40.0 mg/kg/injection, schedule: Q01DX009 (sc), vehicle: saline with Tween-80); 190 % of control and 192 % of control (dose: 45.0 mg/kg/injection, schedule: Q01DX009 (sc), vehicle: saline with Tween-80). Besides, the T/C (dose: 50.0 mg/kg/injection, schedule: Q01DX009 (sc), vehicle: saline with Tween-80) was 195 % of control; the T/C (dose: 60.0 mg/kg/injection, schedule: Q01DX009 (sc), vehicle: saline with Tween-80) was 164 % of control; the T/C (dose: 90.0 mg/kg/injection, schedule: Q01DX009 (ip), vehicle: saline with Tween-80) was 123 % of control; the T/C (dose: 100.0 mg/kg/injection, schedule: Q01DX009 (sc), vehicle: saline with Tween-80) was 163 % of control; the T/C (dose: 108.0 mg/kg/injection, schedule: Q04DX003 (sc), vehicle: Klucel (hydroxypropylcellulose) (HPC)) is 119 % of control and 122 % of control; the T/C (dose: 120.0 mg/kg/injection, schedule: Q01DX009 (ip), vehicle: saline with Tween-80) was 158 % of control. Moreover, the T/C is, setting by setting: (dose: 120.0 mg/kg/injection, schedule: Q01DX009 (sc), vehicle: saline) 157 % of control; (dose: 180.0 mg/kg/injection, schedule: Q04DX003 (sc), vehicle: Klucel (hydroxypropylcellulose) (HPC)) 122 % of control; (dose: 240.0 mg/kg/injection, schedule: Q01DX009 (ip), vehicle: saline with Tween-80) 97 % of control; (dose: 240.0 mg/kg/injection, schedule: Q01DX009 (sc), vehicle: saline with Tween-80) 86 % of control; (dose: 300.0 mg/kg/injection, schedule: Q04DX003 (sc), vehicle: Klucel (hydroxypropylcellulose) (HPC)) 153 % of control; (dose: 833.0 mg/kg/injection, schedule: Q04DX003 (sc), vehicle: Klucel (hydroxypropylcellulose) (HPC)) 111 % of control and 112 % of control.

Turning to `O=C(O)c1cc(=O)[nH]c(=O)[nH]1`, under “dose: 300.0 mg/kg/injection, schedule: Q01DX Z (sc), vehicle: saline”, the T/C is 100 % of control.

For `CC[C@H](c1ccc(O)cc1)[C@@H](CC)c1ccc(O)cc1`, under “dose: 130.0 mg/kg/injection, schedule: Q01DX Z (sc), vehicle: methylcellulose (MC)”, the T/C was 111 % of control.

Regarding `O=C1c2ccccc2C(=O)c2c(NCCNCCO)ccc(O)c21`, the T/C (dose: 5.0 mg/kg/injection, schedule: Q01DX009 (ip), vehicle: suspension in saline) was 103 % of control and 104 % of control; the T/C (dose: 10.0 mg/kg/injection, schedule: Q01DX009 (ip), vehicle: suspension in saline) was 103 % of control and 106 % of control; the T/C (dose: 20.0 mg/kg/injection, schedule: Q01DX009 (ip), vehicle: suspension in saline) was 104 % of control and 108 % of control; the T/C (dose: 40.0 mg/kg/injection, schedule: Q01DX009 (ip), vehicle: suspension in saline) is 103 % of control and 106 % of control; the T/C (dose: 80.0 mg/kg/injection, schedule: Q01DX009 (ip), vehicle: suspension in saline) is 114 % of control and 116 % of control.

In the case of `CCn1cnc2c(=S)nc[nH]c21`, the T/C (dose: 833.0 mg/kg/injection, schedule: Q01DX Z (sc), vehicle: methylcellulose (MC)) was 120 % of control.

Turning to `CC(=O)OCC(=O)[C@@]1(O)CC[C@H]2[C@@H]3CCC4=CC(=O)CC[C@]4(C)[C@@]3(F)[C@@H](O)C[C@@]21C`, the T/C is 121 % of control (dose: 300.0 mg/kg/injection, schedule: Q01DX Z (sc), vehicle: methylcellulose (MC)) and 115 % of control (dose: 500.0 mg/kg/injection, schedule: Q01DX Z (sc), vehicle: methylcellulose (MC)).
